Source: PMC10975527 (Viruses, 2024)
Structures can show the parent of a compound that is named as a salt. Where two headings read alike, the source gives them in different places.

Key:
[1] = plasma, cited from earlier work
[2] = test system: dogs; settings: dog, in vivo; cited from earlier work
[3] = test system: rats; settings: rat, in vivo; cited from earlier work
[4] = test system: Wild-type HBV; experiment: HBV polymerase variant phenotyping in Huh-7: wild-type; settings: Hepatitis B virus, Huh-7, read-out: HBV DNA, EC50
[5] = test system: HBV; experiment: HBV life cycle analysis in HepG2.2.15 cells; assay type: cell-based, hepatitis B virus; settings: ETV 1 μM, GLS4 1 μM, AB-161 100 nM
[6] = test system: HBV; experiment: In vitro combination study in HepG2.2.15 cells; assay type: cell-based, hepatitis B virus; settings: for interference with HBsAg inhibition by AB-161: HepG2.2.15, combined with AB-161; for effect on the levels of HBsAg: HepG2.2.15, compound alone; for Antagonism / Synergy / Conclusion (combination effect): Inhibitor A combined with AB-161, HBV DNA; for Antagonism / Synergy: 99.9% confidence; for Conclusion (combination effect): Prichard and Shipman criteria
[7] = test system: monkeys; design: method as in earlier work; settings: 9 months dosing; cited from earlier work
[8] = test system: rats; settings: cited from earlier work

| SMILES | HBV DNA replication [5] | intracellular HBV RNA (pgRNA, preS/S RNA) [5] | viral proteins: HBV core and capsid assembly [5] | interference with HBsAg inhibition by AB-161 [6] | effect on the levels of HBsAg [6] | Antagonism [6] | Synergy [6] | Conclusion (combination effect) [6] | also measured |
| --- | --- | --- | --- | --- | --- | --- | --- | --- | --- |
| COCCCOc1cc2c(nc1OC)-c1cc(=O)c(C(=O)O)cn1[C@H](C(C)C)C2 [AB-452, (S)-6-Isopropyl-2-methoxy-3-(3-methoxypropoxy)-10-oxo-5,10-dihydro-6H-pyrido [1,2-h][1,7]naphthyridine-9-carboxylic Acid] | – | – | – | – | – | – | – | – | protein binding [1]: ~50%; histopathology of spinal nerves [2]: axonal degeneration; findings in male reproductive tissues [3]: Decreased epididymis and minimal-to-mild spermatid depletion; histopathology of sciatic nerves [3]: axonal degeneration |
| C=C1[C@H](CO)[C@@H](O)C[C@@H]1n1cnc2c(=O)[nH]c(N)nc21 [ETV, entecavir] | profoundly inhibited | no effect | no effect | did not interfere | do not affect | −3.99 ± 3.59 µM^2% | 0.00 ± 0.00 µM^2% | Additive | EC50 [4]: 17 nM; EC50 ([6]; Hepatitis B virus, HepG2.2.15, read-out: Inhibitor A EC50): 5.1 ± 1.1 nM |
| CCOC(=O)C1=C(CN2CCOCC2)NC(c2nccs2)=NC1c1ccc(F)cc1Br (centres unmarked) [GLS4] | substantially reduced | no effect | substantially reduced | – | – | – | – | – | – |
| COCCCOc1cc2c(cc1OC)-c1cc(=O)c(C(=O)O)cn1[C@H](C(C)C)C2 [RG7834] | – | – | – | – | – | – | – | – | neurotoxicity [7]: dose- and time-dependent neurotoxicity; protein binding ([1]; species not stated): ~56%; neurotoxicity ([8]; 6 months dosing): dose- and time-dependent neurotoxicity; male reproductive adverse events [8]: abnormal sperm and testicular changes |
| CC(C)OC(=O)OCOP(=O)(CO[C@H](C)Cn1cnc2c(N)ncnc21)OCOC(=O)OC(C)C [TDF, tenofovir disoproxil fumarate] | – | – | – | did not interfere | do not affect | −0.43 ± 0.744 µM^2% | 0.00 ± 0.00 µM^2% | Additive | – |
